Data taken from patent US11235059B2, “Afucosylated anti-FGFR2IIIB antibodies” (Five Prime Therapeutics, Inc., priority 2013, dated 2022).

Columns and labels:
[1] = tested on: OCUM-2M cells; experiment: ADCC assay, EC50 by curve fitting (Example 5); assay type: cell-based, human; conditions: E:T 25:1, 16 hours, percent specific lysis
Protocol: (§1) Ba/F3 FGFR2IIIb-expressing target cells were generated as described before. OCUM-2M cells were obtained from Osaka City University, Osaka, Japan. All cells were cultured using standard methods. Freshly isolated PMBC from healthy donors were obtained from AllCells, Emeryville, Calif.
(§2) ADCC assays were conducted using freshly isolated human PBMCs as effector cells at an effector to target (E:T) cell ratio of 25:1. The target cells were incubated for 16 hours in the presence of effectors and increasing concentrations of antibody. All conditions were tested in triplicate. Cytotoxicity was determined by quantifying LDH release as per the manufacturer's recommendations (Promega's CytoTox Non-Radioactive Cytotoxicity Assay). For the OCUM-2M cells, maximal lysis was determined in the presence of 5% Triton X-100, and spontaneous release was determined in the absence of antibody. Percentage of specific lysis was calculated as a percentage of maximal lysis less spontaneous release, as follows: (experimental−spontaneous release)/(maximal−spontaneous release)×100=% specific lysis. GraphPad software curve-fitting analysis was used to obtain EC50 values.

[2] = tested on: OCUM-2M human gastric cancer xenograft with FGFR2 amplification; experiment: OCUM-2M gastric cancer xenograft model; assay type: in vivo, CB17 SCID mice; conditions: for tumor response: 10 mg/kg intraperitoneal twice per week
Description: Six week old female CB17 SCID mice were purchased from Charles River Laboratories (Wilmington, Mass.) and were acclimated for 1 week before the start of the study. Human gastric carcinoma cell line OCUM-2M or breast carcinoma cell line MFM-223 were used as the tumor models. OCUM-2M was purchased from Public University Corporation Osaka City University (OCU, Osaka, Japan), and MFM-223 was purchased from Culture Collections, Public Health England (98050130, HPA Culture Collections, Salisbury, UK). The cells were cultured for up to three passages in complete growth medium to expand for implantation. OCUM-2M and MFM-223 cells were cultured in Dulbecco's […] (DMEM) and Minimum Essential Medium (MEM), respectively. All medium was supplemented with 10% heat-inactivated Fetal Bovine Serum (FBS), 2 mM L-Glutamine, and Penicillin-Streptomycin solution. Cells were grown at 37° C. in a humidified atmosphere with 5% CO2.
When the cultured cells reached 85-90% confluence, cells were harvested and resuspended in cold Ca^2+ and Mg^2+ free phosphate buffered saline (PBS) containing 50% Matrigel (BD BioSciences, San Jose, Calif.). OCUM-2M cells were implanted subcutaneously over the right flank of the mice at 5×10^5 cells/100 μl/mouse. MFM-223 cells were implanted subcutaneously over the right flank of the mice at 5×10^5 cells/100 μl/mouse, and 0.72 mg 90-day release […] estradiol pellets (Innovative Research of America, Sarasota, Fla.) were inoculated subcutaneously into the right flank. Mice were monitored twice weekly following cell implantation for tumor growth. Tumor size was measured according to the formula: Tumor size (mm^3)=([…])/2. When MFM-223 tumors reached 80 mm^3 mice were sorted and randomized (n=10), and treatment was initiated. For OCUM-2M tumors, single therapy with anti-FGFR2b was initiated once tumors reached an average size of 100 mm^3, and combination therapy was initiated once tumors reached an average size of 250 mm^3.
Chemotherapeutic agents were administered via intraperitoneal injection twice per week at 12 mg/kg for paclitaxel, 2.3 mg/kg for fluorouracil (5-FU), and 33 mg/kg for cisplatin. Upon initiation of therapy, tumor sizes were measured in each mouse twice weekly. The length and width of each tumor was measured using calipers and the tumor size calculated according to the formula above. Mice were euthanized when the subcutaneous tumor volumes exceeded 2000 mm^3 or when the tumors became excessively necrotic.
Comparisons of tumor volume […] determined to be statistically significant if P<0.05. P-values were calculated using unpaired, two-tailed t-test analyses of the calculated tumor volumes on the final day upon which tumors were measured.

[3] = tested on: MFM-223 human breast cancer xenograft; experiment: MFM-223 breast cancer xenograft model; assay type: in vivo, CB17 SCID mice; conditions: 5 mg/kg
Description: Six week old female CB17 SCID mice were purchased from Charles River Laboratories (Wilmington, Mass.) and were acclimated for 1 week before the start of the study. Human gastric carcinoma cell line OCUM-2M or breast carcinoma cell line MFM-223 were used as the tumor models. OCUM-2M was purchased from Public University Corporation Osaka City University (OCU, Osaka, Japan), and MFM-223 was purchased from Culture Collections, Public Health England (98050130, HPA Culture Collections, Salisbury, UK). The cells were cultured for up to three passages in complete growth medium to expand for implantation. […]
When the cultured cells reached 85-90% confluence, cells were harvested and resuspended in cold Ca^2+ and Mg^2+ free phosphate buffered saline (PBS) containing 50% Matrigel (BD BioSciences, San Jose, Calif.). […] Mice were monitored twice weekly following cell implantation for tumor growth. Tumor size was measured according to the formula: Tumor size (mm^3)=(width (mm)×length (mm)^2)/2. […]
Chemotherapeutic agents were administered via intraperitoneal injection twice per week at 12 mg/kg for paclitaxel, 2.3 mg/kg for fluorouracil (5-FU), and 33 mg/kg for cisplatin. Upon initiation of therapy, tumor sizes were measured in each mouse twice weekly. The length and width of each tumor was measured using calipers and the tumor size calculated according to the formula above. […]

[4] = tested on: MFM 223 cells; experiment: ADCC assay with human PBMC effectors, LDH release (Example 3); assay type: cell-based; conditions: data not shown
Protocol: (§3) MFM-223 cells were obtained from the Health Protection Agency, UK; OCUM-2M cells were obtained from Osaka City University, Osaka, Japan; and KATO III cells were obtained from ATCC, Rockville, Md. All cells were cultured using standard methods. Freshly isolated PMBC from healthy donors were obtained from AllCells, Emeryville, Calif.
(§4) ADCC assays were conducted using effector cells from 3 independent donors on 3 different days. ADCC assay testing was performed using freshly isolated human PBMCs as effector cells at an effector to target (E/T) cell ratio of 25:1. The target cells were incubated for 16 hours in the presence of effectors and increasing concentrations of antibody. The ADCC assay was validated using 2 positive control antibodies, HERCEPTIN® on SKOV-3 target cells and RITUXIN® on Raji target cells. A fully human IgG1 negative control antibody (Eureka Therapeutics, Catalog ET901, Emeryville, Calif.) was used for non-specific cell cytotoxicity. Cytotoxicity was determined by quantifying LDH release as per the manufacturer's instructions (CytoTox Non Radioactive Cytotoxicity Assay, Promega, Madison, Wis.).
(§5) Maximal lysis was determined in the presence of 5% Triton X-100, and spontaneous release was determined in the absence of antibody. Percentage of specific lysis was calculated as follows, as a percentage of maximal lysis less spontaneous release: (experimental−spontaneous release)/(maximal−spontaneous release)×100=% specific lysis

[5] = tested on: KATO III cells; experiment: as above; assay type: cell-based; conditions: E/T 25:1, 16 hours; data not shown
Protocol: as §3, §4, §5

[6] = tested on: OCUM-2M cells; experiment: as above; assay type: cell-based; conditions: data not shown
Protocol: as §3, §4, §5

[7] = tested on: FGFR2IIIb-expressing Ba/F3 cells; experiment: as above; assay type: cell-based; conditions: E/T 25:1, 16 hours
Protocol: Ba/F3 FGFR2IIIb-expressing target cells were produced as follows. Ba/F3 cells acquired from Leibniz-Institut DSMZ-Deutsche Sammlung von Mikroorganismen and Zellkulturen GmbH (DSMZ, cat #ACC300, Braunschweig, Germany) were maintained in RPMI (Mediatech, cat #10-041-CV, Manassas, Va.), supplemented with 10% fetal bovine serum (Mediatech, cat #35-010-CV), 1 ng/mL murine IL-3 (Peprotech, cat #213-13, Rocky Hill, N.J.), 1×BME (Invitrogen, cat #1047574, Grand Island, N.Y.), and 1× Penicillin-streptomycin (Mediatech cat #30-002-C1). […]
ADCC assays were conducted using effector cells from 3 independent donors on 3 different days. […] Cytotoxicity was determined by quantifying LDH release as per the manufacturer's instructions (CytoTox Non Radioactive Cytotoxicity Assay, Promega, Madison, Wis.).
as §5

[8] = tested on: Ba/F3 FGFR2IIIb-expressing target cells; experiment: ADCC assay, EC50 by curve fitting (Example 5); assay type: cell-based; conditions: FIG. 9
Protocol: as §1, §2

Substance: αFGFR2bF: fucosylated anti-FGFR2IIIb humanized antibody with the same amino acid sequences as αFGFR2bA, produced in CHOK1SV cells [reference compound]
- EC50 (ADCC) [1]: 0.03 µg/mL
- tumor response [2]: immediate tumor regression

Substance: αFGFR2bA: afucosylated humanized anti-FGFR2IIIb monoclonal antibody produced in Potelligent CHOK1SV cells; heavy chain SEQ ID NO: 2, light chain SEQ ID NO: 3
- EC50 (ADCC) [1]: 0.005 µg/mL
- final tumor size compared to albumin control [3]: significantly reduced final MFM-223 tumor size
- tumor growth compared to albumin control ([3]; start at about 80 mm^3): dramatically reduced growth of MFM-223 tumors
- ADCC activity compared with αFGFR2bF ([4]; E/T 25:1, 16 hours): greater ADCC activity at lower concentrations
- maximal specific lysis compared with αFGFR2bF [4]: comparable
- ADCC activity compared with αFGFR2bF [5]: greater ADCC activity at lower concentrations
- ADCC activity compared with αFGFR2bF ([6]; E/T 25:1, 16 hours): greater ADCC activity at lower concentrations
- maximal specific lysis compared with αFGFR2bF [6]: comparable
- specific lysis compared with αFGFR2bF [7]: greater specific lysis
- ADCC potency compared with αFGFR2bF [8]: higher potency
- final tumor size compared with αFGFR2bF ([2]; 3 mg/kg): notably reduced final OCUM-2M tumor size
- tumor growth compared with αFGFR2bF ([2]; 3 mg/kg): reduced tumor growth
- tumor regression and durability compared with αFGFR2bF ([2]; 3 mg/kg): greater tumor regression and durable response
- durability of response compared with αFGFR2bF ([2]; 10 mg/kg): more durable response
- final tumor size compared with αFGFR2bF ([2]; 10 mg/kg): significantly reduced final OCUM-2M tumor size
- tumor response [2]: immediate tumor regression
- final tumor size ([2]; 1 to 5 mg/kg, higher doses more potent): reduced final OCUM-2M tumor size
- tumor growth suppression ([2]; 2, 1.5, and 1 mg/kg): reduced growth suppression
- tumor growth suppression ([2]; 3 and 5 mg/kg): greatest suppression and durable response
- tumor growth ([2]; all doses: 1, 1.5, 2, 3, or 5 mg/kg, start at about 100 mm^3): inhibited tumor growth
